Holding throughout (type): functional, cell-based
For data set [1], the target named is T1, Solute carrier organic anion transporter family member 1B3 (Homo sapiens, UniProt Q9NPD5).
T1 sequence (Q9NPD5 whole entry): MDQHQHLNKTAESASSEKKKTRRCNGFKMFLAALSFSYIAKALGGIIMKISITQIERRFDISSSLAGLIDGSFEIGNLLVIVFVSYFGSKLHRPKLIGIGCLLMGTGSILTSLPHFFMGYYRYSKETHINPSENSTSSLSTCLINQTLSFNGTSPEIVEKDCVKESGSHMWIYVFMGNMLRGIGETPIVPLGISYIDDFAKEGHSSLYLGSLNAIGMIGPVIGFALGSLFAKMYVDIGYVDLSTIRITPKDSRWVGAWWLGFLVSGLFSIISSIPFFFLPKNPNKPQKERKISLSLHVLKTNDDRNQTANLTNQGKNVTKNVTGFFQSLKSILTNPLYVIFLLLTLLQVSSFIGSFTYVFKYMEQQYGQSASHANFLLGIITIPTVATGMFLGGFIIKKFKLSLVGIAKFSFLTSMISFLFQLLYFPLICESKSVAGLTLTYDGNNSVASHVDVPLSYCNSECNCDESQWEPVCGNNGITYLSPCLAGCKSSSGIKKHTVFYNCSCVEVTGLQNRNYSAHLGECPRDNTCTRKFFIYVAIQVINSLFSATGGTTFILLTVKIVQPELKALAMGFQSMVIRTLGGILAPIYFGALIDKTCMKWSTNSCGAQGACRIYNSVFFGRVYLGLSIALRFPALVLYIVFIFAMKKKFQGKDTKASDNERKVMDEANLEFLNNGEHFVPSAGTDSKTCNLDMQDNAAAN
Briefly: (§1) TP_TRANSPORTER: uptake in OATP8-expressing HEK293 cells. The following applies: hek293.

The target of data set [2] is T2, OATP8 (OATP1B3, SLCO1B3) (Homo sapiens, UniProt Q9NPD5).
T2 sequence (Q9NPD5 whole entry): T1 sequence (Q9NPD5 whole entry)
Described as §1. The note with it: HEK293 cells expressing OATP8.

Data set [3] addresses T3, Solute carrier organic anion transporter family member 1B1 (Homo sapiens, UniProt Q9Y6L6).
T3 sequence (Q9Y6L6 whole entry): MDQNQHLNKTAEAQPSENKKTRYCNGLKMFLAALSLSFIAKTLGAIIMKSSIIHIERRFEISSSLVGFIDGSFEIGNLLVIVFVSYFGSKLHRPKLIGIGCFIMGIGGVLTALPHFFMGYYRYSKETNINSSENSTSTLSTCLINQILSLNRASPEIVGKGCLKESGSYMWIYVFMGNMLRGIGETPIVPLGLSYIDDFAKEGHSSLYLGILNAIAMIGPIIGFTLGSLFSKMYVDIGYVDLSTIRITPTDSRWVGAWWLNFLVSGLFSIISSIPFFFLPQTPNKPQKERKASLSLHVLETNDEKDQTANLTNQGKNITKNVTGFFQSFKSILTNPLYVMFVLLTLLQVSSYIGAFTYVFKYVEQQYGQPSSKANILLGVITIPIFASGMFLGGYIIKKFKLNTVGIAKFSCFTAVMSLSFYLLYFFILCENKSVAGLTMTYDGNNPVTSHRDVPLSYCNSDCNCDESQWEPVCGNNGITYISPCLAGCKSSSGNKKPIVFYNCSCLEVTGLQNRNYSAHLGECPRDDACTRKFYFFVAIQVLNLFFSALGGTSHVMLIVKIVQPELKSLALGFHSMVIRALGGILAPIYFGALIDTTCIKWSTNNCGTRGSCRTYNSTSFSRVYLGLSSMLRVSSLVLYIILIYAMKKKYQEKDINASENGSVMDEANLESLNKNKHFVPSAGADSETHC
Briefly: (§2) TP_TRANSPORTER: uptake in OATP-C-expressing HEK293 cells.

The target in data set [4] is T1, Solute carrier organic anion transporter family member 1B3. Nature of the data set: TP_TRANSPORTER: inhibition of E217betaG uptake (E217betaG: 2 uM, ICG: 10 uM) in OATP8-expressing HEK293 cells. The note with it: hek293, 10 µM.
The target of data set [5] is T3, Solute carrier organic anion transporter family member 1B1. Briefly: TP_TRANSPORTER: inhibition of E217betaG uptake (E217betaG: 2 uM, ICG: 10 uM) in OATP-C-expressing HEK293 cells. The following applies: hek293, 10 µM.
Data set [6] addresses T1, Solute carrier organic anion transporter family member 1B3. Nature of the data set: TP_TRANSPORTER: inhibition of E217betaG uptake (E217betaG: 2 uM, Rifampicin: 75 uM) in OATP8-expressing HEK293 cells. The following applies: hek293, 75 µM.
Data set [7] addresses T3, Solute carrier organic anion transporter family member 1B1. Briefly: TP_TRANSPORTER: inhibition of E217betaG uptake (E217betaG: 2 uM, Rifampicin: 75 uM) in OATP-C-expressing HEK293 cells. The following applies: hek293, 75 µM.
Data set [8] has as its target T1, Solute carrier organic anion transporter family member 1B3. Briefly: TP_TRANSPORTER: inhibition of E217betaG uptake (E217betaG: 2 uM, Rifamycin SV: 50 uM) in OATP8-expressing HEK293 cells. The note with it: hek293, 50 µM.
The target of data set [9] is T3, Solute carrier organic anion transporter family member 1B1. Briefly: TP_TRANSPORTER: inhibition of E217betaG uptake (E217betaG: 2 uM, Rifamycin SV: 50 uM) in OATP-C-expressing HEK293 cells. The note with it: hek293, 50 µM.
Data set [10] has the same target. Briefly: TP_TRANSPORTER: inhibition of Bilirubin uptake (Bilirubin: 10 uM, BSP: 5 uM) in OATP-C-expressing HEK293 cells. The following applies: hek293, 5 µM.
Substrate in data set [11]: C=CC1=C(C)/C(=C/c2[nH]c(Cc3[nH]c(/C=C4\NC(=O)C(C)=C4C=C)c(C)c3CCC(=O)O[C@@H]3OC(C(=O)O)[C@@H](O)C(O)C3O)c(CCC(=O)O)c2C)NC1=O
The data set is described as §2.

Substrate in data set [12]: C=CC1=C(C)/C(=C/c2[nH]c(Cc3[nH]c(/C=C4\NC(=O)C(C)=C4C=C)c(C)c3CCC(=O)O[C@@H]3O[C@@H](C(=O)O)[C@H](O)[C@@H](O)[C@@H]3O)c(CCC(=O)O[C@@H]3O[C@H](C(=O)O)[C@H](O)[C@H](O)[C@@H]3O)c2C)NC1=O
Described as §2.

Substrate in data set [13]: C[C@]12CC[C@@H]3c4ccc(OS(=O)(=O)O)cc4CC[C@H]3[C@@H]1CCC2=O
Described as §2.

Substrate in data set [14]: O=C1OC(c2ccc(O)c(S(=O)(=O)O)c2)(c2ccc(O)c(S(=O)(=O)O)c2)c2c(Br)c(Br)c(Br)c(Br)c21
The data set is described as §2.

Substrate in data set [15]: [H][C@@]12CC=C3C[C@@H](OS(=O)(=O)O)CC[C@]3(C)[C@@]1([H])CC[C@]1(C)C(=O)CC[C@@]21[H]
Described as §2.

Some results are limits rather than exact numbers.

Consider `C=CC1=C(C)/C(=C/c2[nH]c(Cc3[nH]c(/C=C4\NC(=O)C(C)=C4C=C)c(C)c3CCC(=O)O[C@@H]3O[C@@H](C(=O)O)[C@H](O)[C@@H](O)[C@@H]3O)c(CCC(=O)O[C@@H]3O[C@H](C(=O)O)[C@H](O)[C@H](O)[C@@H]3O)c2C)NC1=O`, for which the Activity entry in data set [1] was “is not a substrate [-]”.

As usually defined, the Km is the substrate concentration at which the rate is half of its maximum. In the case of `C=CC1=C(C)/C(=C/c2[nH]c(Cc3[nH]c(/C=C4\NC(=O)C(C)=C4C=C)c(C)c3CCC(=O)O[C@@H]3OC(C(=O)O)[C@@H](O)C(O)C3O)c(CCC(=O)O)c2C)NC1=O` (some centres not stated) [BILIRUBIN MONOGLUCURONIDE], the Km in data set [2] amounted to 0.5 µM.

As for `C=CC1=C(C)/C(=C/c2[nH]c(Cc3[nH]c(/C=C4\NC(=O)C(C)=C4C=C)c(C)c3CCC(=O)O)c(CCC(=O)O)c2C)NC1=O` [BILIRUBIN], the Activity entry in data set [3] is “substrate [+]”.

In the case of `C[C@]12CC[C@@H]3c4ccc(OS(=O)(=O)O)cc4CC[C@H]3[C@@H]1CCC2=O` [ESTRONE SULFURIC ACID], the Activity result in data set [1] was “is not a substrate [-]”.

With `CC1(C)C(/C=C/C=C/C=C/C=C2/N(CCCCS(=O)(=O)[O-])c3ccc4ccccc4c3C2(C)C)=[N+](CCCCS(=O)(=O)[O-])c2ccc3ccccc3c21.[Na+]` [INDOCYANINE GREEN], the Activity result in data set [4] is “is not an inhibitor [-]”; in [5], “inhibitor [(at a rough estimate) 5 % of control]”.

In the case of `C[C@]12CC[C@H](OS(=O)(=O)O)CC1=CC[C@@H]1[C@@H]2CC[C@]2(C)C(=O)CC[C@@H]12` [PRASTERONE SULFURIC ACID], in data set [2], the Km was > 30 µM.

With `CO[C@H]1/C=C/O[C@@]2(C)Oc3c(C)c(O)c4c(O)c(c(/C=N/N5CCN(C)CC5)c(O)c4c3C2=O)NC(=O)/C(C)=C\C=C\[C@H](C)[C@H](O)[C@@H](C)[C@@H](O)[C@@H](C)[C@H](OC(C)=O)[C@@H]1C` [RIFAMPIN], the Activity entry was “inhibitor [(at a rough estimate) 10 % of control]” in [6] and “inhibitor [(at a rough estimate) 20 % of control]” in [7].

Consider `CO[C@H]1/C=C/O[C@@]2(C)Oc3c(C)c(O)c4c(O)c(cc(O)c4c3C2=O)NC(=O)/C(C)=C\C=C\[C@H](C)[C@H](O)[C@@H](C)[C@@H](O)[C@@H](C)[C@H](OC(C)=O)[C@@H]1C` [RIFAMYCIN], for which the Activity result in data set [8] is “inhibitor [(at a rough estimate) 35 % of control]”; in data set [9], “inhibitor [(at a rough estimate) 20 % of control]”.

Consider `O=C1OC(c2ccc(O)c(S(=O)(=O)[O-])c2)(c2ccc(O)c(S(=O)(=O)[O-])c2)c2c(Br)c(Br)c(Br)c(Br)c21.[Na+].[Na+]` [SULFOBROMOPHTHALEIN SODIUM], for which, in [10], the Activity entry is “inhibitor [(at a rough estimate) 15 % of control]”.

B1: Solute carrier organic anion transporter family member 1B1 (Homo sapiens) (protein)
chain: T3 sequence (Q9Y6L6 whole entry)
As for B1, the Michaelis constant (Km) in [11] was found to be 0.1 µM; in data set [12] it was 0.28 µM; in data set [13], 12.5 µM; in data set [14], 0.14 µM; in [15], 21.5 µM.
